Data as given in paper PMC8333425, “Discovery of a dual Ras and ARF6 inhibitor from a GPCR endocytosis screen” (Nature Communications, 2021).
Several values for one entry are separate records, joined by “and”; a condition that tells them apart may be missing. Equal entries are not always repeated.

What was measured:
[1] = test system: ERK1/2 activation by B2R; experiment: Western blot of B2R-mediated ERK1/2 phosphorylation; assay type: cell-based, human; settings: for p-ERK1/2 over ERK1/2, normalized to basal (0 min), B2R: Comp 21 50 μM, individual experiments
Method: HEK293SL cells (10^5 cells per well) were seeded in a poly-L-lysine-coated six-well plate and transiently transfected with 3 μg Flag-AT1R, HA-B2R or HA-β2AR and/or 500 ng Flag-MEK1-WT, Flag-MEK1-DD, Flag-BRAF-WT, Flag-BRAF-V600E, Flag-K-Ras-WT, Flag-K-Ras-G12V, HA-ARF6-WT, or HA-ARF6-T27N. Gαq/11 KO and βarr1/2 KO cells were seeded onto 100 mm dishes at a density of 10^6 cells per dish. Next day, cells were transfected with 3 μg AT1R alone or along with 500 ng of β-arrestin2 using PEI. After 18 h of transfection, cells were detached and re-seeded onto poly-L-lysine coated 12-well plates (~1.5–2 × 10^5cells/well) for subsequent experiments. Forty-eight hours post transfection, in a 37 °C water bath, cells were serum-starved for 30 min, pretreated with DMSO (0.1%) or compound 21/Rasarfin (50 µM or at indicated concentrations) for 30 min, then stimulated or not with the indicated ligand [AngII (1 µM), BK (1 µM), Iso (10 µM) or EGF (100 ng/ml)] at indicated times. Cells were put on ice, washed with PBS and solubilized in 2x laemmli buffer (250 mM Tris–HCl pH 6.8, 2% SDS (w/v), 10% glycerol (v/v), 0.01% bromophenol blue (w/v) and 5% β-mercaptoethanol (v/v)) by heating at 65 °C for 15 min. Lysates were resolved on 10 or 14% SDS-PAGE, transferred to nitrocellulose membranes and immunoblotted for p-ERK1/2, ERK1/2, p-Akt, Akt, HA, Myc, β-actin or FLAG. ImageLab 5.2 software was used to quantify the digital blots as fold of the phosphorylated protein over total protein, which were then normalized as indicated in the figure legends. Uncropped immunoblots are provided in the Source Data file.

[2] = test system: MDA-MB-231 cells; experiment: Cell proliferation assay (IncuCyte confluence), MDA-MB-231; assay type: cell-based, human
Method: Cell proliferation was measured by a label-free, non-invasive cellular confluence assay using IncuCyte Live-Cell Imaging Systems (Essen Bioscience, Ann Arbor, MI, USA). MDA-MB-231 breast cancer and A549 lung carcinomas cells (1500 cells in 150 μl/well) were seeded overnight on a clear 96-well plate. Twenty-four hours later, the cells were treated with 0.1% DMSO, or different concentrations of Rasarfin (as indicated), or 10 µM of 21.4 or 21.8 for 96 h total. The plate was placed in an XL-3 incubation chamber maintained at 37 °C and the cells were photographed using a ×4 objective, every 3 h for 4 days. Cell confluence was calculated using IncuCyte S3 software (2019A) and cell proliferation was expressed as an increase in the percentage of confluence. Experiments were done in triplicate and repeated three times.

SMILES	MAPK response promoted by B2R ([1]; 50 μM)	p-ERK1/2 over ERK1/2, normalized to basal (0 min), B2R ([1]; time 0 min)	p-ERK1/2 over ERK1/2, normalized to basal (0 min), B2R ([1]; time 2 min)	p-ERK1/2 over ERK1/2, normalized to basal (0 min), B2R ([1]; time 5 min)	MDA-MB-231 cell growth (confluency) ([2]; various concentrations of Rasarfin)	MDA-MB-231 cell proliferation (confluency) ([2]; 10 µM)
CC(C)C(=O)N1CCN(c2ccc(NC(=O)c3cc4ccccc4o3)cc2Cl)CC1 [Compound 21]	blocked MAPK responses	1 (3×) and 1.039	1.954 and 3.081 and 1.486 and 1.1152	0.9797 and 0.9619 and 1.157 and 1.051	dose-dependent reduction in cell growth over time	–
CCCC(=O)N1CCN(c2ccc(NC(=O)c3cc4ccccc4o3)cc2Cl)CC1 [Compound 21.8]	–	–	–	–	–	inhibited cell proliferation
